Source: patent US10098906B2, “Modulation of the physical interaction between platelets and the cell surface effecting cell proliferation” (Cell Receptor GmbH, priority 2013, dated 2018)
“And” between values parts separate entries of the source, which are not always exact repeats. Equal values may be shown once.

Tests used:
[1] = tested on: HeLa cells; assay: Cell culture experiment for testing inhibition of cell proliferation (daily co-incubation with platelets, serum-free); format: cell-based, human; details: inhibitor 1.0 or 0.1 μg/mL co-incubated with platelets 30 minutes daily, serum-free Eagle's MEM
Protocol: In order to interrogate the effectiveness of PPS and DXS with respect to the inhibition of cell growth, the following experiment may be carried out.
Experiment duration: 5 days; Culture medium: Eagle's MEM without serum addition.
Test approach: PPS or DXS in 1.0, 0.1 μg/mL, and control (0 μg/mL final concentration).
HeLa cells are cultured from stocks: 10^4 cells/25 cm^2 flask, cell numbers are counted in a Fuchs-Rosenthal chamber. Platelets are prepared as described above.
Platelets and HeLa cells, or other tumor cell lines, either with or without inhibitor, are co-incubated for 30 minutes once every day, for 1 to 4 days. After co-incubation the cells are washed as described above and then allowed to rest under standard culture conditions. Typically 90×10^6 platelets are incubated per well per day.
On day 5, cells are washed with HBSS, photographed, trypsinized and the cell number counted as described above.

[2] = Anticoagulant activity compared with heparin; details: in vitro studies
[3] = tested on: platelets; assay: In vitro platelet aggregation compared with UFH; format: cell-based; details: in vitro studies
[4] = fraction of heparin activity; cited from earlier work
[5] = tested on: HeLa cells, clone S3; assay: Adhesion experiment (platelet binding to cell surface), microscopic quantification; format: cell-based, human; details: for Inhibition of platelet binding to growing cells: 0.1 ppm, FIG. 11, triplicate; for Inhibition of platelet binding to growing cells (in words): concentration not stated; for Reduction of platelet binding to the cells: 0.01 U/mL; for Inhibition of the binding of platelets to the HeLa cells: 0.1 U/mL, FIGS. 5 to 9
Protocol: The process for evaluating the platelet binding of growing cells involves the isolation of platelets from peripheral blood with two subsequent washes and cell sedimentation. These washes include a partial activation of the platelets, which is relevant for their interaction with Heparin. The incubation with the cells under investigation takes place under conditions in which full activation of platelets is approached, which would lead to lumps forming in the platelets. This would hinder analysis. Therefore, a low concentration of EDTA is added to the assay. The quantification of platelets and the calculation of the surface portions of cells and background is carried out using appropriate software, namely by macros in the open source program ImageJ.
Virus and mycoplasma free HeLa cells, clone S3, and human skin fibroblasts (NHDF) were purchased from Promo Cell, Heidelberg. Their human origin was confirmed by STR-Analysis. HeLa cells were maintained in Eagles MEM with 10% fetal calf serum. The NHDF were also maintained with 10% fetal calf serum in RPMI 1640. The passaging was performed by trypsin-EDTA treatment. The cell lines were maintained in either 25 ml bottles or in 3 cm plates.
The cells used for the experiment are cultured for 2 or 3 days in standard plates. At the start of the experiment about ⅓ of the plate surface should be covered with cells. The culture plates are subsequently washed with the buffer mixture described above and filled with further buffer mixture. For example, 30 mm culture dishes are filled with 2 ml 37° C. pre-warmed buffer mixture and 3×10^7 platelets obtained from the above-mentioned suspension.
The platelet-treated plates are incubated at 37° C. for 60 minutes. In this incubation, the pretreated platelets adhere to proliferating cells. However, cells of G0-phase bind little or none of the pre-treated platelets. This stage of incubation is when the substance to be tested is added to the cell culture buffer, in order to detect whether an effect on platelet binding is observed.
After the one hour incubation, the plates are washed at room temperature with the above mentioned buffer mixture until no free water floating platelets (generally 2 to 4 washes) are present and immediately fixed with glutaraldehyde (1% v/v in H2O).
The evaluation is carried out photographically. For this purpose, the image analysis program ImageJ is applied. The number of cell-bound platelets in relation to the recorded cell number of cells is determined. Additionally, the number of cell-bound platelets in relation to the cell-covered area may be determined.
Images are produced after the fixation in triplicate per plate. Phase contrast or brightfield 25×, 16× or 10× objectives are used. Image analysis is carried out according to SOP IJ. The open source program ImageJ may be used to for differential image subtraction and mask optimization. Subsequently, platelet number, cell number and proportional cell surface are determined by other IJ components.

Dextran sulfate sodium salt from Leuconostoc spec [DXS]
Increase of cell number (proliferation) on day 5 [1]: increases to a reduced extent
Anticoagulation in comparison to UFH [2]: reduced anticoagulation
Platelet aggregation in comparison to UFH [3]: reduced platelet aggregation
Anticoagulant activity relative to heparin [4]: much weaker
Inhibition of platelet binding to growing cells [5]: roughly 75%
Inhibition of platelet binding to growing cells (in words) [5]: reproducible inhibition

dalteparin
Reduction of platelet binding to the cells [5]: significant reduction
Inhibition of the binding of platelets to the HeLa cells [5]: almost completely inhibited

danaparoid
Difference in platelet binding between control and treatment ([5]; 1.25 U/mL, about 5 times the upper limit of the therapeutic range): no significant difference
Cell-bound platelets per cell ([5]; 1.25 U/mL, control 15.9+/-7.7 platelets/cell): 13.2 platelets/cell
Inhibition of platelet binding to growing cells (in words) [5]: significantly lower effect
Inhibition of platelet binding to growing cells (in words) ([5]; listed as Danaparoid): to a lower extent

dermatan sulfate
Inhibition of platelet binding to growing cells (in words) [5]: significantly less effective

enoxaparin
Reduction of platelet binding to the cells [5]: significant reduction
Inhibition of the binding of platelets to the HeLa cells [5]: almost completely inhibited

heparan sulfate
Inhibition of platelet binding to growing cells (in words) [5]: significantly less effective

pentosan polysulfate [PPS]
Increase of cell number (proliferation) on day 5 [1]: increases to a reduced extent
Anticoagulation in comparison to UFH [2]: reduced anticoagulation
Platelet aggregation in comparison to UFH [3]: reduced platelet aggregation
Anticoagulant activity relative to heparin [4]: less than 1/10 and much weaker and 1/15
Inhibition of platelet binding to growing cells [5]: roughly 75%
Inhibition of platelet binding to growing cells (in words) [5]: reproducible inhibition

tinzaparin
Reduction of platelet binding to the cells [5]: significant reduction
Inhibition of the binding of platelets to the HeLa cells [5]: almost completely inhibited
